Data taken from PubChem BioAssay AID2060621 (Molecular Pharmacology Branch, DTP, NCI, 2025).
pIC50: −log10 of the molar value.

Tested on: 324938-238-R-J1-PDC complex spheroids viability
Assay: Anticancer human tumor 324938-238-R-J1-PDC patient-derived bladder carcinoma cell line growth inhibition [CLK]
Conditions: for pIC50: curve of first compound; for viability, T/C: stronger effect = lower value
In short: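 Multi-cell-type spheroids combined patient-derived tumor cells with HUVEC endothelial cells and human mesenchymal stem cells. Paired agents were dosed in half-log steps down from about clinical Cmax, or from 10 microM where Cmax was unknown.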

[1] = second compound 0.0316 µM, first compound 0.0316 µM
[2] = second compound 0.0316 µM, first compound 0.1 µM
[3] = second compound 0.0316 µM, first compound 0.316 µM
[4] = second compound 0.0316 µM, first compound 1 µM
[5] = second compound 0.1 µM, first compound 0.0316 µM
[6] = second compound 0.1 µM, first compound 0.1 µM
[7] = second compound 0.1 µM, first compound 0.316 µM
[8] = second compound 0.1 µM, first compound 1 µM
[9] = second compound 0.316 µM, first compound 0.0316 µM
[10] = second compound 0.316 µM, first compound 0.1 µM
[11] = second compound 0.316 µM, first compound 0.316 µM
[12] = second compound 0.316 µM, first compound 1 µM
[13] = second compound 1 µM, first compound 0.0316 µM
[14] = second compound 1 µM, first compound 0.1 µM
[15] = second compound 1 µM, first compound 0.316 µM
[16] = second compound 1 µM, first compound 1 µM
[17] = second compound 3.16 µM, first compound 0.0316 µM
[18] = second compound 3.16 µM, first compound 0.1 µM
[19] = second compound 3.16 µM, first compound 0.316 µM
[20] = second compound 3.16 µM, first compound 1 µM
[21] = second compound 10 µM, first compound 0.0316 µM
[22] = second compound 10 µM, first compound 0.1 µM
[23] = second compound 10 µM, first compound 0.316 µM
[24] = second compound 10 µM, first compound 1 µM
[25] = second compound 0.0316 µM, first compound 3.16 µM
[26] = second compound 0.0316 µM, first compound 10 µM
[27] = second compound 0.1 µM, first compound 3.16 µM
[28] = second compound 0.1 µM, first compound 10 µM
[29] = second compound 0.316 µM, first compound 3.16 µM
[30] = second compound 0.316 µM, first compound 10 µM
[31] = second compound 1 µM, first compound 3.16 µM
[32] = second compound 1 µM, first compound 10 µM
[33] = second compound 3.16 µM, first compound 3.16 µM
[34] = second compound 3.16 µM, first compound 10 µM
[35] = second compound 10 µM, first compound 3.16 µM
[36] = second compound 10 µM, first compound 10 µM
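Further: viability read after seven days of drug exposure.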
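Wherever viability, T/C is given: 100% = DMSO vehicle control wells.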

Structure (SMILES): COc1c(OCCCN2CCOCC2)ccc2c3n(c(=NC(=O)c4cnc(N)nc4)nc12)CCN3 + CNC(=O)c1ccc(Nc2nc(OC3CCCC3)c3c(-c4ccc5nc(C)oc5c4)c[nH]c3n2)c(OC)c1
- pIC50 (second compound 0.0316 µM): 7.67
- pIC50 (second compound 0.1 µM): > 8.50
- pIC50 (second compound 0.316 µM): > 8.50
- pIC50 (second compound 1 µM): > 8.50
- pIC50 (second compound 3.16 µM): > 8.50
- pIC50 (second compound 10 µM): > 8.50
- viability, T/C (second compound 0.0316 µM, first compound 0.00316 µM): 72.8%
- viability, T/C (second compound 0.0316 µM, first compound 0.01 µM): 66.1%
- viability, T/C [1]: 41.3%
- viability, T/C [2]: 19.4%
- viability, T/C [3]: 7.32%
- viability, T/C [4]: 0.92%
- viability, T/C (second compound 0.1 µM, first compound 0.00316 µM): 36.3%
- viability, T/C (second compound 0.1 µM, first compound 0.01 µM): 34.7%
- viability, T/C [5]: 32.4%
- viability, T/C [6]: 19.4%
- viability, T/C [7]: 6.56%
- viability, T/C [8]: 1.65%
- viability, T/C (second compound 0.316 µM, first compound 0.00316 µM): 15.5%
- viability, T/C (second compound 0.316 µM, first compound 0.01 µM): 12.7%
- viability, T/C [9]: 10.2%
- viability, T/C [10]: 4.98%
- viability, T/C [11]: 2.15%
- viability, T/C [12]: 0.5%
- viability, T/C (second compound 1 µM, first compound 0.00316 µM): 15.6%
- viability, T/C (second compound 1 µM, first compound 0.01 µM): 12.1%
- viability, T/C [13]: 6.92%
- viability, T/C [14]: 4.04%
- viability, T/C [15]: 1.17%
- viability, T/C [16]: 0.45%
- viability, T/C (second compound 3.16 µM, first compound 0.00316 µM): 15.5%
- viability, T/C (second compound 3.16 µM, first compound 0.01 µM): 12.8%
- viability, T/C [17]: 8.33%
- viability, T/C [18]: 3.11%
- viability, T/C [19]: 0.87%
- viability, T/C [20]: 0.39%
- viability, T/C (second compound 10 µM, first compound 0.00316 µM): 14.3%
- viability, T/C (second compound 10 µM, first compound 0.01 µM): 10.3%
- viability, T/C [21]: 6.72%
- viability, T/C [22]: 3.94%
- viability, T/C [23]: 1.19%
- viability, T/C [24]: 0.48%

Structure (SMILES): C#Cc1c(F)ccc2cc(O)cc(-c3ncc4c(N5CC6CCC(C5)N6)nc(OCC56CCCN5CC(F)C6)nc4c3F)c12 (stereo not drawn) + CN1CCN(c2cc(C(=O)Nc3cc4cc(-c5cnn(C)c5)ccc4cn3)ccn2)CC1
- pIC50 (second compound 0.0316 µM): 5.30
- pIC50 (second compound 0.1 µM): 5.91
- pIC50 (second compound 0.316 µM): > 7.50
- pIC50 (second compound 1 µM): > 7.50
- pIC50 (second compound 3.16 µM): > 7.50
- pIC50 (second compound 10 µM): > 7.50
- viability, T/C [1]: 77.5%
- viability, T/C [2]: 86.1%
- viability, T/C [3]: 74.5%
- viability, T/C [4]: 69.9%
- viability, T/C [25]: 56%
- viability, T/C [26]: 41.4%
- viability, T/C [5]: 57.3%
- viability, T/C [6]: 51.8%
- viability, T/C [7]: 52.7%
- viability, T/C [8]: 52.8%
- viability, T/C [27]: 38%
- viability, T/C [28]: 32.7%
- viability, T/C [9]: 28.2%
- viability, T/C [10]: 28%
- viability, T/C [11]: 22.2%
- viability, T/C [12]: 23.9%
- viability, T/C [29]: 21.5%
- viability, T/C [30]: 19.4%
- viability, T/C [13]: 2%
- viability, T/C [14]: 2.51%
- viability, T/C [15]: 2.35%
- viability, T/C [16]: 2.31%
- viability, T/C [31]: 1.37%
- viability, T/C [32]: 0.75%
- viability, T/C [17]: 0.13%
- viability, T/C [18]: 0.3%
- viability, T/C [19]: 0.16%
- viability, T/C [20]: 0.11%
- viability, T/C [33]: 0.15%
- viability, T/C [34]: 0.14%
- viability, T/C [21]: 0.11%
- viability, T/C [22]: 0.16%
- viability, T/C [23]: 1.1%
- viability, T/C [24]: 0.14%
- viability, T/C [35]: 0.15%
- viability, T/C [36]: 0.24%

Structure (SMILES): CC(C)CC(NC(=O)C(Cc1ccccc1)NC(=O)c1cnccn1)B(O)O (stereo not drawn) + CN1CCN(c2cc(C(=O)Nc3cc4cc(-c5cnn(C)c5)ccc4cn3)ccn2)CC1
- pIC50 (second compound 0.0316 µM): 8.89
- pIC50 (second compound 0.1 µM): > 9.02
- pIC50 (second compound 0.316 µM): > 9.02
- pIC50 (second compound 1 µM): > 9.02
- pIC50 (second compound 3.16 µM): > 9.02
- pIC50 (second compound 10 µM): > 9.02
- viability, T/C (second compound 0.0316 µM, first compound 0.000949 µM): 67%
- viability, T/C (second compound 0.0316 µM, first compound 0.003 µM): 2.89%
- viability, T/C (second compound 0.0316 µM, first compound 0.00949 µM): 0.33%
- viability, T/C (second compound 0.0316 µM, first compound 0.03 µM): 0.33%
- viability, T/C (second compound 0.0316 µM, first compound 0.0949 µM): 0.22%
- viability, T/C (second compound 0.0316 µM, first compound 0.3 µM): 0.18%
- viability, T/C (second compound 0.1 µM, first compound 0.000949 µM): 46.9%
- viability, T/C (second compound 0.1 µM, first compound 0.003 µM): 2.21%
- viability, T/C (second compound 0.1 µM, first compound 0.00949 µM): 0.38%
- viability, T/C (second compound 0.1 µM, first compound 0.03 µM): 0.33%
- viability, T/C (second compound 0.1 µM, first compound 0.0949 µM): 0.18%
- viability, T/C (second compound 0.1 µM, first compound 0.3 µM): 0.32%
- viability, T/C (second compound 0.316 µM, first compound 0.000949 µM): 11.1%
- viability, T/C (second compound 0.316 µM, first compound 0.003 µM): 0.71%
- viability, T/C (second compound 0.316 µM, first compound 0.00949 µM): 0.31%
- viability, T/C (second compound 0.316 µM, first compound 0.03 µM): 0.2%
- viability, T/C (second compound 0.316 µM, first compound 0.0949 µM): 0.15%
- viability, T/C (second compound 0.316 µM, first compound 0.3 µM): 0.17%
- viability, T/C (second compound 1 µM, first compound 0.000949 µM): 0.28%
- viability, T/C (second compound 1 µM, first compound 0.003 µM): 0.27%
- viability, T/C (second compound 1 µM, first compound 0.00949 µM): 0.18%
- viability, T/C (second compound 1 µM, first compound 0.03 µM): 0.16%
- viability, T/C (second compound 1 µM, first compound 0.0949 µM): 0.44%
- viability, T/C (second compound 1 µM, first compound 0.3 µM): 0.22%
- viability, T/C (second compound 3.16 µM, first compound 0.000949 µM): 0.23%
- viability, T/C (second compound 3.16 µM, first compound 0.003 µM): 0.24%
- viability, T/C (second compound 3.16 µM, first compound 0.00949 µM): 0.24%
- viability, T/C (second compound 3.16 µM, first compound 0.03 µM): 0.1%
- viability, T/C (second compound 3.16 µM, first compound 0.0949 µM): 0.18%
- viability, T/C (second compound 3.16 µM, first compound 0.3 µM): 0.17%
- viability, T/C (second compound 10 µM, first compound 0.000949 µM): 0.71%
- viability, T/C (second compound 10 µM, first compound 0.003 µM): 0.21%
- viability, T/C (second compound 10 µM, first compound 0.00949 µM): 0.18%
- viability, T/C (second compound 10 µM, first compound 0.03 µM): 0.22%
- viability, T/C (second compound 10 µM, first compound 0.0949 µM): 0.26%
- viability, T/C (second compound 10 µM, first compound 0.3 µM): 0.25%

Structure (SMILES): O=c1[nH]cc(F)c(=O)[nH]1 + CNC(=O)c1ccc(Nc2nc(OC3CCCC3)c3c(-c4ccc5nc(C)oc5c4)c[nH]c3n2)c(OC)c1
- pIC50 (second compound 0.0316 µM): 6.59
- pIC50 (second compound 0.1 µM): > 7.50
- pIC50 (second compound 0.316 µM): > 7.50
- pIC50 (second compound 1 µM): > 7.50
- pIC50 (second compound 3.16 µM): > 7.50
- pIC50 (second compound 10 µM): > 7.50
- viability, T/C [1]: 80.6%
- viability, T/C [2]: 77.5%
- viability, T/C [3]: 43.5%
- viability, T/C [4]: 28.6%
- viability, T/C [25]: 22.2%
- viability, T/C [26]: 25.1%
- viability, T/C [5]: 25.2%
- viability, T/C [6]: 24%
- viability, T/C [7]: 23.8%
- viability, T/C [8]: 19.8%
- viability, T/C [27]: 15.7%
- viability, T/C [28]: 17.5%
- viability, T/C [9]: 19.6%
- viability, T/C [10]: 18.5%
- viability, T/C [11]: 16.2%
- viability, T/C [12]: 14.7%
- viability, T/C [29]: 14.3%
- viability, T/C [30]: 14.7%
- viability, T/C [13]: 16.1%
- viability, T/C [14]: 15.2%
- viability, T/C [15]: 15.4%
- viability, T/C [16]: 13.8%
- viability, T/C [31]: 10.5%
- viability, T/C [32]: 9.31%
- viability, T/C [17]: 15.3%
- viability, T/C [18]: 14.8%
- viability, T/C [19]: 14%
- viability, T/C [20]: 12.7%
- viability, T/C [33]: 11.2%
- viability, T/C [34]: 11.1%
- viability, T/C [21]: 17.8%
- viability, T/C [22]: 15.3%
- viability, T/C [23]: 15.1%
- viability, T/C [24]: 16.6%
- viability, T/C [35]: 12.6%
- viability, T/C [36]: 10.3%
